Data from patent US20220340629A1, “Myosin Derived Peptides and Related Compounds with Anticoagulant Activities” (THE SCRIPPS RESEARCH INSTITUTE, priority 0001, published 2022).
pIC50: −log10 of the molar value. Residues, ends and D or L forms follow the SMILES beside them.

Target: skeletal muscle myosin-supported prothrombin activation by factors Xa and Va (Homo sapiens, UniProt P00742)
Test: Assay 1A: prothrombin activation by factor Xa/factor Va/myosin in purified system
Type: biochemical, human factors Xa and Va; rabbit skeletal muscle myosin
Conditions: purified system; skeletal muscle myosin, factor Va 5 nM, factor Xa 0.2 nM, prothrombin 0.75 μM, 10 min; read-out: 1A (+myosin)

Chain of skeletal muscle myosin-supported prothrombin activation by factors Xa and Va (P00742 41-179): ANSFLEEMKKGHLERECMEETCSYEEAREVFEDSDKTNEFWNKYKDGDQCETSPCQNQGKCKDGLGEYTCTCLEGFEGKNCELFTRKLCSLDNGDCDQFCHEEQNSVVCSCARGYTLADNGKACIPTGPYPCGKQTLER
Chain of skeletal muscle myosin-supported prothrombin activation by factors Xa and Va (P00742 235-488): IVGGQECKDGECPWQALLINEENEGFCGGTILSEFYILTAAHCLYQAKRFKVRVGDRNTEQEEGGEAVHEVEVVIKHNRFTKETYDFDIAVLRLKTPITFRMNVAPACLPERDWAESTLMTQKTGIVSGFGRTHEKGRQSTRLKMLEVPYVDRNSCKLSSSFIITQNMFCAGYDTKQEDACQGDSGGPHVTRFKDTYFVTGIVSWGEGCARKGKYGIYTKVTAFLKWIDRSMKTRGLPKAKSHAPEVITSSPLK
Chain of skeletal muscle myosin-supported prothrombin activation by factors Xa and Va (P12259 29-737 partner): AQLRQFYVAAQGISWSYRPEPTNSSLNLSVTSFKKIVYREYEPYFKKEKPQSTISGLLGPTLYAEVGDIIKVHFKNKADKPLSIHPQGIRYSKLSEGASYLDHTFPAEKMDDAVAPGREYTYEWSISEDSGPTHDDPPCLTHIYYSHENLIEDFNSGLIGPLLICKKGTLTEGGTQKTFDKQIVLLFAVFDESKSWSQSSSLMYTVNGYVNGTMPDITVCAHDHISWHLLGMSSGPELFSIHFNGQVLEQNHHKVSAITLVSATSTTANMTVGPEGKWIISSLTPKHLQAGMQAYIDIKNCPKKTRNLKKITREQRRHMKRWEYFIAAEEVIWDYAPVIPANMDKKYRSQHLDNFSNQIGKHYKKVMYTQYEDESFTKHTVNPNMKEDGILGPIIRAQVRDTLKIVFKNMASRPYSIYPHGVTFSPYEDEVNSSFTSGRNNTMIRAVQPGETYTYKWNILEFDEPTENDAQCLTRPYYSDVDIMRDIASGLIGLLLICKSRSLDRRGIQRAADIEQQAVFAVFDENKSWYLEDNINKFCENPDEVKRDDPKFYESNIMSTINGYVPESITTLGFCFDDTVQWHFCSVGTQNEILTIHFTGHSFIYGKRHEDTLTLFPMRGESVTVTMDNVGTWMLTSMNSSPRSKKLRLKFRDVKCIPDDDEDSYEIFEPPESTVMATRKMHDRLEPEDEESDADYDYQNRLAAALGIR
Chain of skeletal muscle myosin-supported prothrombin activation by factors Xa and Va (P12259 1574-2224 partner): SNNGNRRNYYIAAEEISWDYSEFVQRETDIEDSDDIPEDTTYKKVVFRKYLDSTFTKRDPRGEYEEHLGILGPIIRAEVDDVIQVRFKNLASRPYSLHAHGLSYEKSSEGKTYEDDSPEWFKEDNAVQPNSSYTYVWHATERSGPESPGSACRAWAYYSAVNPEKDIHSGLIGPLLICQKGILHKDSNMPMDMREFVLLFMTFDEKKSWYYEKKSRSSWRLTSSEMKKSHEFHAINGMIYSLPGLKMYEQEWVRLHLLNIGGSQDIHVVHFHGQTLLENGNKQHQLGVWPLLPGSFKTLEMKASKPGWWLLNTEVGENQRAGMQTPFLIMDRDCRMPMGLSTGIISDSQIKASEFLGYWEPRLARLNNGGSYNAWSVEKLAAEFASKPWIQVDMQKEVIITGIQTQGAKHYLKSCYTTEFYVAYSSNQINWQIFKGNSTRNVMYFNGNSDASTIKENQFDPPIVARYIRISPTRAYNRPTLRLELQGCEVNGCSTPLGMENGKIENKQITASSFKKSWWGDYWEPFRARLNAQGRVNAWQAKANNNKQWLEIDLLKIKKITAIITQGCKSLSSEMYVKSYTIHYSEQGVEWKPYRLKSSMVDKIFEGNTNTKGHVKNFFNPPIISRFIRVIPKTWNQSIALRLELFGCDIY

Row | pIC50 | SMILES
1 | 6.11 | CC[C@H](C)[C@H](NC(=O)[C@H](CS)NC(=O)[C@H](Cc1ccccc1)NC(=O)[C@H](C)NC(=O)[C@H](C)N)C(=O)N[C@@H](CCC(N)=O)C(=O)N[C@@H](Cc1ccc(O)cc1)C(=O)N[C@@H](CC(N)=O)C(=O)N[C@H](C(=O)N[C@@H](CCCNC(=N)N)C(=O)N[C@@H](CO)C(=O)N[C@@H](Cc1ccccc1)C(=O)N[C@@H](CCSC)C(=O)N[C@@H](CC(N)=O)C(=O)N[C@H](C(=O)N[C@@H](CCCCN)C(=O)N[C@@H](Cc1c[nH]cn1)C(=O)N[C@@H](Cc1c[nH]c2ccccc12)C(=O)N1CCC[C@H]1C(=O)N[C@@H](Cc1c[nH]c2ccccc12)C(=O)N[C@@H](CCSC)C(=O)N[C@@H](CCCCN)C(N)=O)C(C)C)[C@@H](C)CC [HC117] (H-AAFCIQYNIRSFMNVKHWPWMK-NH2; N-terminus assumed)
2 | 5.74 | CC[C@H](C)[C@H](NC(=O)[C@H](C)N)C(=O)N[C@@H](C)C(=O)N[C@@H](CS)C(=O)N[C@H](C(=O)N[C@@H](CCC(N)=O)C(=O)N[C@@H](Cc1ccc(O)cc1)C(=O)N[C@@H](CC(N)=O)C(=O)N[C@H](C(=O)N[C@@H](CCCNC(=N)N)C(=O)N[C@@H](CO)C(=O)N[C@@H](Cc1ccccc1)C(=O)N[C@@H](CCSC)C(=O)N[C@@H](CC(N)=O)C(=O)N[C@H](C(=O)N[C@@H](CCCCN)C(=O)N[C@@H](Cc1c[nH]cn1)C(=O)N[C@@H](Cc1c[nH]c2ccccc12)C(=O)N1CCC[C@H]1C(=O)N[C@@H](Cc1c[nH]c2ccccc12)C(=O)N[C@@H](CCSC)C(=O)N[C@@H](CCCCN)C(N)=O)C(C)C)[C@@H](C)CC)[C@@H](C)CC [HC118] (H-AIACIQYNIRSFMNVKHWPWMK-NH2; N-terminus assumed)
3 | 5.28 | CC[C@H](C)[C@H](NC(=O)[C@H](C)N)C(=O)N[C@@H](Cc1ccccc1)C(=O)N[C@@H](C)C(=O)N[C@H](C(=O)N[C@@H](CCC(N)=O)C(=O)N[C@@H](Cc1ccc(O)cc1)C(=O)N[C@@H](CC(N)=O)C(=O)N[C@H](C(=O)N[C@@H](CCCNC(=N)N)C(=O)N[C@@H](CO)C(=O)N[C@@H](Cc1ccccc1)C(=O)N[C@@H](CCSC)C(=O)N[C@@H](CC(N)=O)C(=O)N[C@H](C(=O)N[C@@H](CCCCN)C(=O)N[C@@H](Cc1c[nH]cn1)C(=O)N[C@@H](Cc1c[nH]c2ccccc12)C(=O)N1CCC[C@H]1C(=O)N[C@@H](Cc1c[nH]c2ccccc12)C(=O)N[C@@H](CCSC)C(=O)N[C@@H](CCCCN)C(N)=O)C(C)C)[C@@H](C)CC)[C@@H](C)CC [HC119] (H-AIFAIQYNIRSFMNVKHWPWMK-NH2; N-terminus assumed)
4 | 5.28 | CC[C@H](C)[C@H](NC(=O)[C@H](C)N)C(=O)N[C@@H](Cc1ccccc1)C(=O)N[C@@H](CS)C(=O)N[C@@H](C)C(=O)N[C@@H](CCC(N)=O)C(=O)N[C@@H](Cc1ccc(O)cc1)C(=O)N[C@@H](CC(N)=O)C(=O)N[C@H](C(=O)N[C@@H](CCCNC(=N)N)C(=O)N[C@@H](CO)C(=O)N[C@@H](Cc1ccccc1)C(=O)N[C@@H](CCSC)C(=O)N[C@@H](CC(N)=O)C(=O)N[C@H](C(=O)N[C@@H](CCCCN)C(=O)N[C@@H](Cc1c[nH]cn1)C(=O)N[C@@H](Cc1c[nH]c2ccccc12)C(=O)N1CCC[C@H]1C(=O)N[C@@H](Cc1c[nH]c2ccccc12)C(=O)N[C@@H](CCSC)C(=O)N[C@@H](CCCCN)C(N)=O)C(C)C)[C@@H](C)CC [HC120] (H-AIFCAQYNIRSFMNVKHWPWMK-NH2; N-terminus assumed)
5 | 5.49 | CC[C@H](C)[C@H](NC(=O)[C@H](C)N)C(=O)N[C@@H](Cc1ccccc1)C(=O)N[C@@H](CS)C(=O)N[C@H](C(=O)N[C@@H](C)C(=O)N[C@@H](Cc1ccc(O)cc1)C(=O)N[C@@H](CC(N)=O)C(=O)N[C@H](C(=O)N[C@@H](CCCNC(=N)N)C(=O)N[C@@H](CO)C(=O)N[C@@H](Cc1ccccc1)C(=O)N[C@@H](CCSC)C(=O)N[C@@H](CC(N)=O)C(=O)N[C@H](C(=O)N[C@@H](CCCCN)C(=O)N[C@@H](Cc1c[nH]cn1)C(=O)N[C@@H](Cc1c[nH]c2ccccc12)C(=O)N1CCC[C@H]1C(=O)N[C@@H](Cc1c[nH]c2ccccc12)C(=O)N[C@@H](CCSC)C(=O)N[C@@H](CCCCN)C(N)=O)C(C)C)[C@@H](C)CC)[C@@H](C)CC [HC121] (H-AIFCIAYNIRSFMNVKHWPWMK-NH2; N-terminus assumed)
